According to patent US11021493B2, “1,4-thiazine dioxide and 1,2,4-thiadiazine dioxide derivatives as beta-secretase inhibitors and methods of use” (AMGEN INC., priority 2016, dated 2021):

How the values were obtained:
human recombinant BACE2 = human recombinant BACE2 (Homo sapiens (Human), UniProt Q9Y5Z0); assay: In vitro enzymatic BACE2 FRET assay; type: biochemical; conditions: read-out: BACE2 Enzyme IC50
Cathepsin D (CatD) = Cathepsin D (CatD) (Homo sapiens (Human), UniProt P07339); assay: In vitro enzymatic Cathepsin D (CatD) FRET assay; type: biochemical; conditions: read-out: Cat D Enzyme IC50
Cathepsin D (CatD), sequence (P07339 65-412, species assumed): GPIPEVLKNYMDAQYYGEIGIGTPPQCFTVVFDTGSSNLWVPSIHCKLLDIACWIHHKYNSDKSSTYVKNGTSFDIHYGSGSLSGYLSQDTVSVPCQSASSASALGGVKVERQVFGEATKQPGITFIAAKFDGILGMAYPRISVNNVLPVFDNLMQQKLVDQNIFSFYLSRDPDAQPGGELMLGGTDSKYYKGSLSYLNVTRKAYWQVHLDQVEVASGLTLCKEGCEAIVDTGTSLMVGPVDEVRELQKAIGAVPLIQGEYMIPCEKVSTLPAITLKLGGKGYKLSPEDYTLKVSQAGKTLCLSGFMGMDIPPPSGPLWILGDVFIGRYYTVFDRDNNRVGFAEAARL

BACE1 [1] = molecular target: T1, BACE1 (Homo sapiens (Human), UniProt P56817); assay: In vitro enzymatic BACE1 FRET assay; type: biochemical; conditions: read-out: BACE1 Enzyme IC50
Target sequence in this assay (P56817 46-501): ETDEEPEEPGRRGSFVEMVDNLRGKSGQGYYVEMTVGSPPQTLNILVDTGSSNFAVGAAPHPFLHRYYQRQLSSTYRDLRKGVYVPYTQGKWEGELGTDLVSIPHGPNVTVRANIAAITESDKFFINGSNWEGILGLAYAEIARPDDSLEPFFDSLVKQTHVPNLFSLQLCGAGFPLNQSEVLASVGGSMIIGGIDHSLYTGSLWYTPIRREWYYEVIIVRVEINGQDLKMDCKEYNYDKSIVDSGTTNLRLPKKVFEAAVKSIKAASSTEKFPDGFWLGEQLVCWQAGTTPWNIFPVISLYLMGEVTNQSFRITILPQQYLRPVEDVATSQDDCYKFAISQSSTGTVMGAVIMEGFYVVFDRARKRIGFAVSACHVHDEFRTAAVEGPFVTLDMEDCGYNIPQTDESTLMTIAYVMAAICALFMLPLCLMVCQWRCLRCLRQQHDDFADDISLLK

BACE1 [2] = molecular target: T1, BACE1; assay: In vitro BACE1 cell-based assay (Aβ40 in conditioned medium of cells stably expressing APP, HTRF); conditions: Aβ40 in conditioned media after 24 h incubation
Target sequence in this assay (P56817 46-501, species assumed): as the sequence (P56817 46-501) above

human recombinant BACE2, sequence (Q9Y5Z0 63-518): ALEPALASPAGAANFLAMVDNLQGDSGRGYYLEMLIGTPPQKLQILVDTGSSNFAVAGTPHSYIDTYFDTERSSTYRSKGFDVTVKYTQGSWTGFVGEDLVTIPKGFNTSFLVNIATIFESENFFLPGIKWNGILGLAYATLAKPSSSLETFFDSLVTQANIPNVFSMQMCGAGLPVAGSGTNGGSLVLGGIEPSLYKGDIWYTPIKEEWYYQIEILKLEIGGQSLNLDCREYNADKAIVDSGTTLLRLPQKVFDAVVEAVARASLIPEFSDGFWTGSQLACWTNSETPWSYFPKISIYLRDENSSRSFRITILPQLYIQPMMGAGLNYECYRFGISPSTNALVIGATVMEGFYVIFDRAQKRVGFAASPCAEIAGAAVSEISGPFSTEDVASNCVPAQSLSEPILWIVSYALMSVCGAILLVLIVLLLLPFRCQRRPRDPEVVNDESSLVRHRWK

Structure (SMILES)	IC50 (human recombinant BACE2) [µM]	IC50 (Cathepsin D (CatD)) [µM]	IC50 (BACE1 [1]) [µM]	IC50 (BACE1 [2]) [µM]
CC1(C)C(N)=N[C@](C)(c2cc(/C=C(\F)c3cnc(OCC(F)(F)F)cn3)ccc2F)CS1(=O)=O [Example 124, (R,Z)-5-amino-3-(2-fluoro-5-(2-fluoro-2-(5-(2,2,2-trifluoroethoxy)pyrazin-2-yl)vinyl)phenyl)-3,6,6-trimethyl-3,6-dihydro-2H-1,4-thiazine 1,1-dioxide]	0.161	218	0.039	0.134
COC[C@H](C)Oc1cnc(/C(F)=C/c2ccc(F)c([C@@]3(C)N=C(N)[C@@]4(CF)CC[C@@H]3S4(=O)=O)c2)cn1 [Example 131, (1R,4R,5S)-2-amino-4-(2-fluoro-5-((Z)-2-fluoro-2-(5-(((S)-1-methoxypropan-2-yl)oxy)pyrazin-2-yl)vinyl)phenyl)-1-(fluoromethyl)-4-methyl-8-thia-3-azabicyclo[3.2.1]oct-2-ene 8,8-dioxide]	0.104	> 400	0.013	0.097
C#CCOc1cnc(/C(F)=C/c2ccc(F)c([C@]3(C)CS(=O)(=O)C4(CCC4)C(N)=N3)c2)cn1 [Example 149, (R,Z)-9-amino-7-(2-fluoro-5-(2-fluoro-2-(5-(prop-2-yn-1-yloxy)pyrazin-2-yl)vinyl)phenyl)-7-methyl-5-thia-8-azaspiro[3.5]non-8-ene 5,5-dioxide]	0.051	110	0.002	0.003
C#CCOc1cnc(/C(F)=C/c2ccc(F)c([C@@]3(C)N=C(N)N(C)S(=O)(=O)C34CC4)c2)cn1 [Example 138, (8R)-8-(2-fluoro-5-((Z)-2-fluoro-2-(5-(2-propyn-1-yloxy)-2-pyrazinyl)ethenyl)phenyl)-5,8-dimethyl-4-thia-5,7-diazaspiro[2.5]oct-6-en-6-amine 4,4-dioxide]	0.622	125	0.016	0.078
CC1(C)C(N)=N[C@](C)(c2cc(/C=C(\F)c3cnc(OCC4CCCC4)cn3)ccc2F)CS1(=O)=O [Example 144, (R,Z)-5-amino-3-(5-(2-(5-(cyclopentylmethoxy)pyrazin-2-yl)-2-fluorovinyl)-2-fluorophenyl)-3,6,6-trimethyl-3,6-dihydro-2H-1,4-thiazine 1,1-dioxide]	0.143	17	0.03	1.07
CC1(C)C(N)=N[C@](C)(c2cc(/C=C(\F)c3cnc(OCc4ccccc4)cn3)cnc2F)CS1(=O)=O [Example 209, (R,Z)-5-amino-3-(5-(2-(5-(benzyloxy)pyrazin-2-yl)-2-fluorovinyl)-2-fluoropyridin-3-yl)-3,6,6-trimethyl-3,6-dihydro-2H-1,4-thiazine 1,1-dioxide]	0.311	46.5	0.124	2.52
CC1(C)C(N)=N[C@](C)(c2cc(/C=C(\F)c3cnc(Cl)cn3)ccc2F)C(F)(F)S1(=O)=O [Example 191, (R,Z)-5-amino-3-(5-(2-(5-chloropyrazin-2-yl)-2-fluorovinyl)-2-fluorophenyl)-2,2-difluoro-3,6,6-trimethyl-3,6-dihydro-2H-1,4-thiazine 1,1-dioxide]	0.052	62.2	0.128	5.09
CC1(C)C(N)=N[C@](C)(c2cc(/C=C(\F)c3ccc(C#N)cn3)cnc2F)CS1(=O)=O [Example 197, (R,Z)-6-(2-(5-(5-amino-3,6,6-trimethyl-1,1-dioxido-3,6-dihydro-2H-1,4-thiazin-3-yl)-6-fluoropyridin-3-yl)-1-fluorovinyl)nicotinonitrile]	0.087	81.3	0.033	0.052

Continued by falling IC50 (human recombinant BACE2), values first:

IC50 (human recombinant BACE2) [µM]	IC50 (Cathepsin D (CatD)) [µM]	IC50 (BACE1 [1]) [µM]	IC50 (BACE1 [2]) [µM]	Structure (SMILES)
0.683	172	0.626	3.58	CC1(C)C(N)=N[C@](C)(c2cc(/C=C(\F)c3cc4c(cn3)OCCO4)ccc2F)[C@@H](F)S1(=O)=O (single isomer, unassigned) [Example 213]
0.274	104	0.006	0.074	C#CCOc1cnc(/C(F)=C/c2ccc(F)c([C@]3(CF)CS(=O)(=O)C(C)(C)C(N)=N3)c2)cn1 [Example 190, (S,Z)-5-amino-3-(2-fluoro-5-(2-fluoro-2-(5-(prop-2-yn-1-yloxy)pyrazin-2-yl)vinyl)phenyl)-3-(fluoromethyl)-6,6-dimethyl-3,6-dihydro-2H-1,4-thiazine 1,1-dioxide]
0.192	102	0.022	0.027	Cc1noc(COc2cnc(/C(F)=C/c3ccc(F)c([C@@]4(C)N=C(N)[C@@]5(CF)CC[C@@H]4S5(=O)=O)c3)cn2)n1 [Example 115, (1R,4R,5S)-2-amino-4-(2-fluoro-5-((Z)-2-fluoro-2-(5-((3-methyl-1,2,4-oxadiazazol-5-yl)methoxy)pyrazin-2-yl)vinyl)phenyl)-1-(fluoromethyl)-4-methyl-8-thia-3-azabicyclo[3.2.1]oct-2-ene 8,8-dioxide]
0.143	329	0.53	1.02	CN1C(N)=N[C@](C)(c2cc(/C=C(\F)c3cc4c(cn3)OCCC4)ccc2F)CS1(=O)=O [Example 239, (5R)-5-(5-((Z)-2-(3,4-dihydro-2H-pyrano[2,3-c]pyridin-6-yl)-2-fluoroethenyl)-2-fluorophenyl)-2,5-dimethyl-5,6-dihydro-2H-1,2,4-thiadiazin-3-amine 1,1-dioxide]
0.056	163	0.007	0.005	CC1(C)C(N)=N[C@](C)(c2cc(/C=C(\F)c3cnc(OCc4ncco4)cn3)ccc2F)CS1(=O)=O [Example 129, (R,Z)-5-amino-3-(2-fluoro-5-(2-fluoro-2-(5-(oxazol-2-ylmethoxy)pyrazin-2-yl)vinyl)phenyl)-3,6,6-trimethyl-3,6-dihydro-2H-1,4-thiazine 1,1-dioxide]
0.05	94.7	0.003	0.039	C[C@@]1(c2cc(/C=C(\F)c3ccc(C#N)cn3)ccc2F)CS(=O)(=O)C2(CCC2)C(N)=N1 [Example 103, (R,Z)-6-(2-(3-(9-amino-7-methyl-5,5-dioxido-5-thia-8-azaspiro[3.5]non-8-en-7-yl)-4-fluorophenyl)-1-fluorovinyl)nicotinonitrile]
0.028	122	0.006	0.051	Cc1cc(C#N)cnc1/C(F)=C/c1ccc(F)c([C@]2(C)CS(=O)(=O)C(C)(C)C(N)=N2)c1 [Example 274, (R,Z)-6-(2-(3-(5-amino-3,6,6-trimethyl-1,1-dioxido-3,6-dihydro-2H-1,4-thiazin-3-yl)-4-fluorophenyl)-1-fluorovinyl)-5-methylnicotinonitrile]
0.002	68.8	0.007	0.029	CN1C(N)=N[C@](C)(c2cc(/C=C(\F)c3cc(F)c(Cl)cn3)ccc2F)CS1(=O)=O [Example 232, (R,Z)-3-amino-5-(5-(2-(5-chloro-4-fluoropyridin-2-yl)-2-fluorovinyl)-2-fluorophenyl)-2,5-dimethyl-5,6-dihydro-2H-1,2,4-thiadiazine 1,1-dioxide]
